Data set [1] has as its system patients with severe TRMD. The experiment in a line: Same trial; Profile of Mood States 2nd Edition (POMS-2). The format is in vivo, human. The text has this:
The trial was registered at clinicaltrials.gov (NCT03283670).
Patients were recruited from an existing database of TRMD patients identified through participation in a secondary referral clinic for TRMD at Washington University Department of Psychiatry, as well as from the “Volunteers for Health” patient pool (individuals with various medical/psychiatric conditions who volunteer to participate in clinical research) within Washington University School of Medicine. Inclusion criteria were a) adults 18-75 years of age; b) current diagnosis of unipolar major depressive disorder (MDD) without psychosis as confirmed by the Mini International Neuropsychiatric Interview; c) a score of ≥19 on the Montgomery-Asberg Depression Rating Scale (MADRS); d) documented lifetime failure to respond to ≥3 adequate dose/duration antidepressant treatment trials, including ≥1 antidepressant medication failure(s) in the current depressive episode; and e) good command of the English language. […] Patients were instructed to continue their current standard of care MDD treatment and to maintain a stable psychotropic medication dosage or psychotherapy regimen for 4 weeks prior to initiation of the study and throughout the study. […]

Data set [2] has as its system patients with severe TRMD. The experiment in a line: Same trial; treatment safety, monitoring of adverse events. The note with it: for Stomach virus: >24 hours after inhalation session, count (%). The text has this: The study was a single-center, double-blind, randomized placebo-controlled crossover trial. All subjects underwent three one-hour inhalation sessions in random order, each separated by at least 4 weeks. The sessions included: placebo (0% N20), 25% N20, and 50% N20 balanced with air/oxygen. Blinding was executed by separating locations and teams for inhalation treatments and psychiatric evaluations. Only the anesthesia team administering the inhalation treatments was aware of study group assignment; all other participants, including patients and raters, were blinded. Likewise, the study setup was identical for all sessions, and gas flow meters were concealed, making inadvertent unblinding unlikely. The study was approved by the Washington University in St. Louis Institutional Review Board, and all patients provided written, informed consent. The trial was registered at clinicaltrials.gov (NCT03283670).
All three inhalation sessions were scheduled for one hour. […] Except for the choice of inhalational gas admixture, treatment sessions were otherwise identical. The gas mix was administered via a standard anesthesia facemask through tubing connected to the anesthesia machine or an FDA-approved Porter/Praxair MXR breathing circuit. A small sample connector line was inserted into the facemask allowing the measurement of inhaled and exhaled gas concentrations. […] Patients were monitored during and after the treatment according to American Society of Anesthesiologists standards which include continuous 3-lead ECG, pulse oximetry, non-invasive blood pressure, and end tidal CO2 measurement under the supervision of an attending-level anesthesiologist. After the one-hour treatment session, patients were monitored in a recovery room for up to one hour at which time a study team physician determined whether the patient met criteria for discharge.
Data were collected at (a) baseline (prior to each inhalation session), (b) 2-hours, (c) 24 hours, (d) 1 week, and (e) 2 weeks after inhalation. Efficacy of the inhalation treatment on mood was measured using the following: Hamilton Depression Rating Scale 21-item (HDRS-21; primary outcome); Montgomery-Asberg Depression Rating Scale (MADRS); Quick Inventory of Depressive Symptomology-Self Report (QIDS-SR); and the Profile of Mood States 2nd Edition (POMS-2). Other behavioral assessments included an assessment of dissociation, the Clinical Administered Dissociative States Scale 28-item (CADSS-28); and an assessment for the emergence of psychosis, the Brief Psychiatric Rating Scale 18-item (BPRS-18). These mood and behavioral assessments were performed by a blinded member of the psychiatry study team. Additionally, adequacy of the blind was assessed by a Blinding Questionnaire given after completion of each inhalation session. Treatment safety was assessed by monitoring adverse events (AEs) related to (a) cardiovascular status; (b) respiratory function; (c) central nervous system; and (d) psychiatric symptoms, particularly the presence of psychotic symptoms.
Finally, we also tested for a linear dose-response relation. Differences between categorical outcomes (response, remission) were tested by Fisher-Exact test; relative risk and 95% confidence intervals were calculated using the Koopman asymptotic score. Differences in the count of adverse events were compared by the Kruskal-Wallis test. All reported p-values are two-sided and a p-value of <0.05 was considered statistically significant. All analyses were conducted using SuperMix (Scientific Software International, Lincolnwood Ill.).

For data set [3], the system named is Major Depressive Disorder. Particulars: 50% nitrous oxide; cited from earlier work.
For another data set, the system named is bothersome tinnitus. Particulars: similar clinical trial; 85% of patients correctly guessed the treatment arm; cited from earlier work.

Molecules are shown by their SMILES.

For the molecule `[N-]=[N+]=O` [nitrous oxide], the entries for the “Results on the POMS scale” value in data set [1] (25% nitrous oxide) and in data set [1] (50% nitrous oxide) were “non-significant” and “significant at 2 weeks”, respectively. For the same molecule, the Stomach virus in data set [2] (25% N2O (n = 20)) and in data set [2] (50% N2O (n = 23)) was 0 each time. Also, the “Car Crash (minor)” value in data set [2] (human, in vivo) is given as 1 (4%). In data set [2] (human, in vivo), the “Fainting Spell” value is reported as 1 (4%). In addition, the Haziness in data set [2] (human, in vivo) was 3 (13%); in data set [2] (human, in vivo, 1 h), 1(5%). For the same molecule, in data set [2] (in vivo), the Serious adverse events entry is recorded as “None”. For the same molecule, in data set [3], the “Persistence of efficacy after a single inhalation (case report)” value is on record as “beyond one month”. The “Treatment effect for bothersome tinnitus” value with bothersome tinnitus is on record as “did not observe a treatment effect”.

Values taken from US20220313728A1 (priority 2021, published 2022).
